Results as given in US8178506B2, “Oligomeric compounds and compositions for use in modulation of small non-coding RNAs” (Regulus Therapeutics Inc., priority 2003, dated 2012).
e = 2'-O-(2-methoxyethyl) (MOE); d = 2'-deoxy (DNA)

Key:
[1] = tested on: mir-143 miRNA binding site; assay: GFP mir-143 sensor reporter in T-REx-HeLa cells; assay type: cell-based, human; conditions: T-REx-HeLa, 24 hours post-transfection
Source text: Reporter systems have been developed herein to assess the ability of miRNA mimics to provoke a gene silencing response and to assess whether antisense oligomeric compounds targeting miRNAs can inhibit gene silencing activity. The T-REx™-HeLa cell line (Invitrogen Corp., Carlsbad, Calif.) was used for either stable or transient transfections with plasmids constitutively expressing miRNAs, pre-miRNAs, pri-miRNAs or mimics thereof, and, in some cases, antisense oligomeric compounds targeting the expressed miRNA were also transfected into the cells. It is understood that other mammalian cells lines can also be used in this reporter system. T-REx™-HeLa cells were routinely cultured in DMEM, high glucose (Invitrogen Corporation, Carlsbad, Calif.), supplemented with 10% fetal bovine serum (Invitrogen Corporation). […] Cells were harvested when they reached 90% confluence, and on the day before transfection with expression or reporter plasmids (described in detail below), the T-REx™-HeLa cells were seeded onto 24-well plates at 50,000 cells/well. The following day, cells were transfected according to standard published procedures with various combinations of plasmids using 2 μg Lipofectamine™ 2000 Reagent (Invitrogen) per μg of plasmid DNA. When transfecting oligomeric compounds, 1-3 μg of Lipofectamine™ 2000 Reagent was used per 100 nM oligomeric compound.
Plasmids used are as follows: The pcDNA3.1©/NT-GFP (Invitrogen) plasmid, containing a CMV promoter controlling expression of a GFP reporter sequence at the N-terminus of the transcription start site was used as a control plasmid. The pcDNA3.1©/NT-GFP-mir-143 sensor plasmid contains (in addition to the elements above) three 22-nucleotide sites encoding the mir-143 miRNA binding site, downstream of the GFP coding sequence and upstream of the polyadenylation signal. The pCR3-pri-mir-143 plasmid (“pri-mir-143”) is a CMV promoter-driven constitutive expression plasmid which expresses the 110-nucleotide mir-143 pri-miRNA sequence (SEQ ID NO: 38), to act as a mir-143 pri-miRNA mimic. The pCR3-pri-mir control (“pri-mir-control”) is a CMV promotor-driven constitutive expression plasmid which is designed to express a similar 110-nucleotide pri-miRNA sequence ([…] CAGC; SEQ ID NO: 862) wherein the mature mir-143 sequence has been replaced with an unrelated sequence and the predicted complementary strand opposite it within the pri-miRNA structure is replaced with a nearly complementary sequence in order to preserve the stem loop as well as the bulge structure of the natural mir-143 pri-miRNA. Additionally, in order to test the effect of an oligomeric compound targeting a miRNA, the T-REx™-HeLa cells were also transfected with the uniform 2′-MOE phosphorothioate (PS) antisense oligomeric compound ISIS Number 327901 (SEQ ID NO: 319), targeted to mir-143 previously described.
Twenty-four hours post-transfection, cells were trypsinized and GFP fluorescence was analyzed by flow cytometry.

[2] = tested on: IL-6 mRNA; assay: IL-6 mRNA in LPS-activated primary murine macrophages; assay type: cell-based, mouse; conditions: average of 3 treatments
Outline: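 Thioglycollate-elicited peritoneal macrophages from female C57Bl/6 mice, transfected with miRNA-targeting oligomeric compounds via FuGENE 6 (1 μL per 100 nM compound) for ~24–28 h at 37 °C, optionally primed 4 h with 100 ng/mL IFN-gamma, then stimulated 24 h with 100 ng/mL LPS. IL-6 mRNA quantified by real-time PCR.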

Substance	expression of GFP from the pcDNA3.1/NT-GFP-mir-143 sensor plasmid [1]	IL-6 mRNA expression, % UTC ([2]; 75 nM, +IFN) [% UTC]	IL-6 mRNA expression, % UTC ([2]; 75 nM, −IFN) [% UTC]	IL-6 mRNA expression, % UTC ([2]; 150 nM, +IFN) [% UTC]	IL-6 mRNA expression, % UTC ([2]; 150 nM, −IFN) [% UTC]	IL-6 mRNA expression, % UTC ([2]; 300 nM, +IFN) [% UTC]	IL-6 mRNA expression, % UTC ([2]; 300 nM, −IFN) [% UTC]	IL-6 mRNA expression, % UTC ([2]; 600 nM, +IFN) [% UTC]	IL-6 mRNA expression, % UTC ([2]; 600 nM, −IFN) [% UTC]
ds-mir-143: double-stranded RNA of ISIS 342199 hybridized to its perfect complement ISIS 342200 (sense UGAGAUGAAGCACUGUAGCUCA; antisense UGAGCUACAGUGCUUCAUCUCA; RNA, backbone not given here)	inhibited expression of GFP from the sensor plasmid in a dose dependent manner	–	–	–	–	–	–	–	–
129690 (antisense TTAGAATACGTCGCGTTATG; sugars from the 5' end e5 d10 e5, all phosphorothioate, methylation of C not given here) [compound 129690]	–	92	98	86	99	94	109	203	258
